Data from patent publication US20120010075A1 (priority 2009, published 2012).
Read-outs that look alike come from different tables or passages of the source.

Assays:
[1] = tested on: Leptosphaeria nodorum (LEPTNO); assay: In vitro fungitoxicity of hydrazones with and without copper towards Leptosphaeria nodorum (Example 26); assay type: cell-based; settings: 72 h at 25° C.
Phytophthora infestans = assay type: in vivo, Phytophthora infestans on tomato; settings: applied 24 h before inoculation, assessed 7 days after inoculation
Phytophthora capsici = assay: In vitro fungitoxicity of hydrazones with and without copper towards Phytophthora capsici (Example 28, Table 3); assay type: cell-based; settings: 48 h; for % Inhn Plus copper Observed: copper-plus AS medium (CuCl2, 50 μM)
[2] = Parastagonospora nodorum, 72 h, compound 0.05 μg/mL, copper-minus medium, read-out: LEPTNO % Inhn. Minus Copper Observed
[3] = compound 0.05 μg/mL, copper-plus medium (CuCl2.2H2O)
[4] = hydrazone 50 ppm + 50 μM CuCl2.2H2O, tomato
[5] = Phytophthora capsici, 0.039 μg/mL, copper-minus AS medium, read-out: % Inhn Minus copper Observed
[6] = compound 0.05 μg/mL, copper-minus medium
[7] = Parastagonospora nodorum, 72 h, copper-minus medium, test compound Concn. 0.05 μg/mL, read-out: LEPTNO % Inhn. Minus Copper Observed
[8] = copper-plus medium (CuCl2 10 μM), test compound Concn. 0.05 μg/mL
[9] = hydrazone 50 ppm with 50 μM CuCl2.2H2O, tomato late blight

C/C(=N\NC(=O)CCc1ccccc1)c1ccccc1O [Example 131]
inhibition of growth at 0.05 µg/mL [1, 2]: 0% | LEPTNO % Inhn. Plus Copper Observed [1, 3]: 96.8% | TLB % Control (Phytophthora infestans; [4]): 62.0% | % Inhn Plus copper Observed (Phytophthora capsici; 0.039 μg/mL): 93.7% | inhibition of growth at 0.039 µg/mL (Phytophthora capsici; [5]): 5.6%

O=C(Cc1ccc(Cl)cc1)N/N=C/c1cc(Cl)cc(Cl)c1O [Example 123]
inhibition of growth at 0.05 µg/mL [1, 2]: 7.5% | LEPTNO % Inhn. Plus Copper Observed [1, 3]: 95.5% | TLB % Control (Phytophthora infestans; [4]): 71.0% | % Inhn Plus copper Observed (Phytophthora capsici; 0.039 μg/mL): 94.8% | inhibition of growth at 0.039 µg/mL (Phytophthora capsici; [5]): 16.3%

O=C(Cc1ccccc1)N/N=C/c1cc(Cl)cc(Cl)c1O [Example 125]
inhibition of growth at 0.05 µg/mL [1, 2]: 2.4% | LEPTNO % Inhn. Plus Copper Observed [1, 3]: 94.4% | TLB % Control (Phytophthora infestans; [4]): 87.0% | % Inhn Plus copper Observed (Phytophthora capsici; 0.039 μg/mL): 89.4% | inhibition of growth at 0.039 µg/mL (Phytophthora capsici; [5]): 66.6%

O=C(N/N=C/c1ccccc1O)c1cccc(Br)c1 [Example 182]
inhibition of growth at 0.05 µg/mL [1, 2]: 0% | LEPTNO % Inhn. Plus Copper Observed [1, 3]: 97.6% | TLB % Control (Phytophthora infestans; [4]): 74.6% | % Inhn Plus copper Observed (Phytophthora capsici; 0.039 μg/mL): 90.9% | inhibition of growth at 0.039 µg/mL (Phytophthora capsici; [5]): 25.9%

Cc1ccc(C(=O)N/N=C/c2cc(Br)cc(Br)c2O)c(C)c1 [Example 28]
LEPTNO % Inhn. Minus Copper Observed [1, 6]: 7.0% | LEPTNO % Inhn. Plus Copper Observed [1, 3]: 96.8% | TLB % Control (Phytophthora infestans; [4]): 62.7% | % Inhn Plus copper Observed (Phytophthora capsici; 0.039 μg/mL): 93.8% | inhibition of growth at 0.039 µg/mL (Phytophthora capsici; [5]): 11.4%

O=C(N/N=C/c1ccccc1O)c1ccccc1O [Example 1]
inhibition of growth at 0.05 µg/mL [1, 2]: 0.7% | LEPTNO % Inhn. Plus Copper Observed [1, 3]: 96.2% | TLB % Control (Phytophthora infestans; [4]): 64.0% | % Inhn Plus copper Observed (Phytophthora capsici; 0.039 μg/mL): 87.2% | inhibition of growth at 0.039 µg/mL (Phytophthora capsici; [5]): 9.7%

O=C(N/N=C/c1cc(Cl)cc(Cl)c1O)c1ccc(-c2ccccc2)cc1 [Example 74]
inhibition of growth at 0.05 µg/mL [1, 2]: 3% | LEPTNO % Inhn. Plus Copper Observed [1, 3]: 95.7% | TLB % Control (Phytophthora infestans; [4]): 63.6% | % Inhn Plus copper Observed (Phytophthora capsici; 5 μg/mL): 89.4% | inhibition of growth at 5 µg/mL (Phytophthora capsici; Phytophthora capsici, 5 μg/mL, copper-minus AS medium, read-out: % Inhn Minus copper Observed): 17.2%

O=C(N/N=C/c1ccccc1O)c1ccc(-c2ccccc2)cc1 [Example 183]
inhibition of growth at 0.05 µg/mL [1, 2]: 0% | LEPTNO % Inhn. Plus Copper Observed [1, 3]: 96.7% | TLB % Control (Phytophthora infestans; [4]): 66.7% | % Inhn Plus copper Observed (Phytophthora capsici; 0.039 μg/mL): 88.9% | inhibition of growth at 0.039 µg/mL (Phytophthora capsici; [5]): 0%

O=C(CCc1cc(Br)c(O)c(Br)c1)N/N=C/c1cc(Cl)cc(Cl)c1O [Example 5]
inhibition of growth at 0.05 µg/mL [1, 2]: 4.8% | LEPTNO % Inhn. Plus Copper Observed [1, 3]: 56.1% | TLB % Control (Phytophthora infestans; [4]): 22.0% | % Inhn Plus copper Observed (Phytophthora capsici; 0.039 μg/mL): 93.9% | inhibition of growth at 0.039 µg/mL (Phytophthora capsici; [5]): 18.6%

Cc1ccc(/C=N/NC(=O)c2ccc(C(C)C)cc2)c(O)c1 [Example 14]
inhibition of growth at 0.156 µg/mL ([1]; Parastagonospora nodorum, 72 h, compound 0.156 μg/mL, copper-minus medium, read-out: LEPTNO % Inhn. Minus Copper Observed): 2.9% | LEPTNO % Inhn. Plus Copper Observed ([1]; compound 0.156 μg/mL, copper-plus medium (CuCl2.2H2O)): 59.1% | TLB % Control (Phytophthora infestans; [4]): 7.5% | % Inhn Plus copper Observed (Phytophthora capsici; 0.039 μg/mL): 87.2% | inhibition of growth at 0.039 µg/mL (Phytophthora capsici; [5]): 0%

O=C(N/N=C/c1ccccc1O)c1cccc(C(F)(F)F)c1 [Example 61]
inhibition of growth at 0.05 µg/mL [1, 2]: 3.8% | LEPTNO % Inhn. Plus Copper Observed [1, 3]: 93.6% | TLB % Control (Phytophthora infestans; [4]): 60.0% | % Inhn Plus copper Observed (Phytophthora capsici; 0.039 μg/mL): 95.6% | inhibition of growth at 0.039 µg/mL (Phytophthora capsici; [5]): 17.6%

O=C(N/N=C/c1cc(I)cc(I)c1O)c1ccccc1 [Example 146]
inhibition of growth at 0.05 µg/mL [1, 2]: 0% | LEPTNO % Inhn. Plus Copper Observed [1, 3]: 96.2% | TLB % Control (Phytophthora infestans; [4]): 71.2% | % Inhn Plus copper Observed (Phytophthora capsici; 0.039 μg/mL): 91.4% | inhibition of growth at 0.039 µg/mL (Phytophthora capsici; [5]): 11.8%

O=C(N/N=C/c1cc(Br)cc(Br)c1O)c1cccc(F)c1 [Example 119]
inhibition of growth at 0.05 µg/mL [1, 2]: 2.2% | LEPTNO % Inhn. Plus Copper Observed [1, 3]: 95.7% | TLB % Control (Phytophthora infestans; [4]): 91.9% | % Inhn Plus copper Observed (Phytophthora capsici; 0.039 μg/mL): 95.1% | inhibition of growth at 0.039 µg/mL (Phytophthora capsici; [5]): 37.9%

O=C(Cc1ccccc1)N/N=C/c1cc(Cl)cc(Br)c1O [Example 210]
inhibition of growth at 0.05 µg/mL [1, 2]: 1.9% | LEPTNO % Inhn. Plus Copper Observed [1, 3]: 94.1% | TLB % Control (Phytophthora infestans; [4]): 37.0% | % Inhn Plus copper Observed (Phytophthora capsici; 0.039 μg/mL): 92.7% | inhibition of growth at 0.039 µg/mL (Phytophthora capsici; [5]): 36.6%

O=C(Cc1ccccc1)N/N=C/c1cc(Br)cc(Br)c1O [Example 124]
inhibition of growth at 0.05 µg/mL [1, 2]: 0% | LEPTNO % Inhn. Plus Copper Observed [1, 3]: 88.2% | TLB % Control (Phytophthora infestans; [4]): 23.0% | % Inhn Plus copper Observed (Phytophthora capsici; 0.039 μg/mL): 89.7% | inhibition of growth at 0.039 µg/mL (Phytophthora capsici; [5]): 25%

CNc1ccccc1C(=O)N/N=C/c1ccccc1O [Example 3]
inhibition of growth at 0.05 µg/mL [1, 2]: 2.3% | LEPTNO % Inhn. Plus Copper Observed [1, 3]: 93.0% | TLB % Control (Phytophthora infestans; [4]): 47.0% | % Inhn Plus copper Observed (Phytophthora capsici; 0.039 μg/mL): 88.5% | inhibition of growth at 0.039 µg/mL (Phytophthora capsici; [5]): 0%

O=C(N/N=C/c1cc(Cl)cc(Cl)c1O)c1ccccc1F [Example 101]
inhibition of growth at 0.05 µg/mL [1, 2]: 7.8% | LEPTNO % Inhn. Plus Copper Observed [1, 3]: 97.3% | TLB % Control (Phytophthora infestans; [4]): 85.3% | % Inhn Plus copper Observed (Phytophthora capsici; 0.039 μg/mL): 88.2% | inhibition of growth at 0.039 µg/mL (Phytophthora capsici; [5]): 70%

CCOc1ccc(C(=O)N/N=C/c2ccccc2O)cc1 [Example 21]
inhibition of growth at 0.05 µg/mL [1, 2]: 0.1% | LEPTNO % Inhn. Plus Copper Observed [1, 3]: 94.1% | TLB % Control (Phytophthora infestans; [4]): 65.5% | % Inhn Plus copper Observed (Phytophthora capsici; 0.039 μg/mL): 90.0% | inhibition of growth at 0.039 µg/mL (Phytophthora capsici; [5]): 0%

Oc1c(Cl)cc(Cl)cc1/C=N/NC(=S)c1ccccc1 [Example 52]
inhibition of growth at 0.2 µg/mL ([1]; Parastagonospora nodorum, 72 h, compound 0.2 μg/mL, copper-minus medium, read-out: LEPTNO % Inhn. Minus Copper Observed): 12.3% | LEPTNO % Inhn. Plus Copper Observed ([1]; compound 0.2 μg/mL, copper-plus medium (CuCl2.2H2O)): 96.4% | % Inhn Plus copper Observed (Phytophthora capsici; 0.039 μg/mL): 91.2% | inhibition of growth at 0.039 µg/mL (Phytophthora capsici; [5]): 40.6%

C/C(=N\NC(=O)c1ccccc1Br)c1cc(Br)ccc1O [Example 519]
inhibition of growth at 0.05 µg/mL [1, 7]: 9.1% | LEPTNO % Inhn. Plus Copper Observed [1, 8]: 95.7% | TLB % Control (Phytophthora infestans; [9]): 88.0% | melting point: 216 to 218 °C

O=C(N/N=C(/c1ccccc1O)C(F)(F)F)c1ccccc1 [Example 591]
inhibition of growth at 0.05 µg/mL [1, 7]: 0% | LEPTNO % Inhn. Plus Copper Observed [1, 8]: 9.9% | TLB % Control (Phytophthora infestans; [9]): 11.0% | melting point: 208 to 210 °C

Cc1ccc(C(=O)N/N=C(\CCc2ccccc2)c2ccccc2O)c(C)c1 [Example 35]
LEPTNO % Inhn. Minus Copper Observed [1, 6]: 3.8% | LEPTNO % Inhn. Plus Copper Observed [1, 3]: 96.5% | TLB % Control (Phytophthora infestans; [4]): 0.0% | melting point: 162 to 166 °C

COc1cc(O)c(/C(C)=N/NC(=O)c2cccc(C)c2)c(OC)c1 [Example 585]
inhibition of growth at 0.05 µg/mL [1, 7]: 6.3% | LEPTNO % Inhn. Plus Copper Observed [1, 8]: 86.3% | TLB % Control (Phytophthora infestans; [9]): 62.0% | melting point: 207 to 209 °C

O=C(N/N=C/c1cc(C(F)(F)F)cc(Cl)c1O)c1cccc(Cl)c1 [Example 325]
inhibition of growth at 0.05 µg/mL [1, 7]: 0% | LEPTNO % Inhn. Plus Copper Observed [1, 8]: 95.7% | TLB % Control (Phytophthora infestans; [9]): 100.0% | melting point: 210 to 212 °C

C/C(=N\NC(=O)c1ccc(Cl)cc1)c1cc(Br)cc(Br)c1O [Example 545]
inhibition of growth at 0.05 µg/mL [1, 7]: 19.6% | LEPTNO % Inhn. Plus Copper Observed [1, 8]: 97.9% | TLB % Control (Phytophthora infestans; [9]): 95.0% | melting point: 255 to 258 °C

COc1ccc(C(=O)N/N=C(\C)c2c(O)cc(OC)cc2OC)cc1 [Example 569]
inhibition of growth at 0.05 µg/mL [1, 7]: 6.1% | LEPTNO % Inhn. Plus Copper Observed [1, 8]: 15.8% | TLB % Control (Phytophthora infestans; [9]): 70.0% | melting point: 143 to 146 °C

C/C(=N\NC(=O)c1ccccc1)c1cc(C)ccc1O [Example 311]
inhibition of growth at 0.05 µg/mL [1, 7]: 3.3% | LEPTNO % Inhn. Plus Copper Observed [1, 8]: 98.3% | TLB % Control (Phytophthora infestans; [9]): 37.0% | melting point: 197 to 199 °C

C/C(=N\NC(=O)c1ccccc1O)c1cc(Br)ccc1O [Example 520]
inhibition of growth at 0.05 µg/mL [1, 7]: 14.9% | LEPTNO % Inhn. Plus Copper Observed [1, 8]: 96.7% | TLB % Control (Phytophthora infestans; [9]): 49.0% | melting point: 281 to 303 °C
